From patent US12678464B2, “Methods for stem cell transplantation” (The UAB Research Foundation, priority 2015, dated 2026)
≈ marks a conversion by molar mass, not a printed value. Read-outs that look alike come from different tables or passages of the source.

Tests used:
[1] = tested on: haploidentical HCT; details: at 1 year; cited from earlier work
[2] = constituted, cited from earlier work
[3] = tested on: haploidentical HCT; details: CTN 0603; cited from earlier work
[4] = LexiComp monograph; cited from earlier work
[5] = clinical; details: human, in vivo, intravenous, 50 mg/kg
[6] = cited from earlier work
[7] = 1-octanol/water (pH 7.4) buffer solution; cited from earlier work
[8] = cited from earlier work; remark: listed apart in the source

SMILES | relapse rate [1] [%] | physically and chemically stable ([2]; refrigerated) | physically and chemically stable ([2]; room temperature) [h] | relapse rate [3] [%] | elimination half-life [4] [h] | half-life [5] [h] | solubility in acetone ([6]; acetone, in words) | solubility in ethanol ([6]; in words) | solubility in methanol ([6]; in words) | solubility in an acidic medium ([6]; pH 3.6) [µg/mL] | solubility in water ([6]; pH 7.4) [µg/mL] | solubility in water ([6]; water, in words) | apparent partition coefficient [7] | pKa ([8]; morpholino group) | pKa ([8]; phenolic group) | solubility in chloroform ([6]; chloroform, in words)
O=P1(N(CCCl)CCCl)NCCCO1 (stereo not shown) [Cyclophosphamide, 2-[bis(2-cholorethyl)amino]tetrahydro-2H-1,3,2-oxazaphosphorine 2-oxide monohydrate] | 51 | six | 24 | 45 | 3 to 12 | 60 | – | – | – | – | – | – | – | – | – | –
COc1c(C)c2c(c(O)c1C/C=C(\C)CCC(=O)OCCN1CCOCC1)C(=O)OC2 [Mycophenolate mofetil, 2-morpholinoethyl (E)-6-(1,3-dihydro-4-hydroxy-6-methoxy-7-methyl-3-oxo-5-isobenzofuranyl)-4-methyl-4-hexenoate] | – | – | – | – | – | – | freely soluble | sparingly soluble | soluble | 4270 (≈ 9.85 mM) | 43 (≈ 0.0992 mM) | slightly soluble | 238 | 5.6 | 8.5 | –
C=CC[C@@H]1/C=C(\C)C[C@H](C)C[C@H](OC)[C@H]2O[C@@](O)(C(=O)C(=O)N3CCCC[C@H]3C(=O)O[C@H](/C(C)=C/[C@@H]3CC[C@@H](O)[C@H](OC)C3)[C@H](C)[C@@H](O)CC1=O)[C@H](C)C[C@@H]2OC [Tacrolimus] | – | – | – | – | – | – | – | freely soluble | very soluble | – | – | practically insoluble | – | – | – | very soluble
